{"source": "patent US20230242534A9", "about": "“INHIBITORS OF CYCLIN-DEPENDENT KINASE 7 AND USES THEREOF” (Dana-Farber Cancer Institute, Inc., priority 2019, published 2023)", "key": {"[1]": {"target": "T1, SET Human Serotonin Transporter (Homo sapiens, UniProt P31645)", "T1 construct": "Cerep (Eurofins Discovery Services) 439", "T1 sequence (P31645 whole entry)": "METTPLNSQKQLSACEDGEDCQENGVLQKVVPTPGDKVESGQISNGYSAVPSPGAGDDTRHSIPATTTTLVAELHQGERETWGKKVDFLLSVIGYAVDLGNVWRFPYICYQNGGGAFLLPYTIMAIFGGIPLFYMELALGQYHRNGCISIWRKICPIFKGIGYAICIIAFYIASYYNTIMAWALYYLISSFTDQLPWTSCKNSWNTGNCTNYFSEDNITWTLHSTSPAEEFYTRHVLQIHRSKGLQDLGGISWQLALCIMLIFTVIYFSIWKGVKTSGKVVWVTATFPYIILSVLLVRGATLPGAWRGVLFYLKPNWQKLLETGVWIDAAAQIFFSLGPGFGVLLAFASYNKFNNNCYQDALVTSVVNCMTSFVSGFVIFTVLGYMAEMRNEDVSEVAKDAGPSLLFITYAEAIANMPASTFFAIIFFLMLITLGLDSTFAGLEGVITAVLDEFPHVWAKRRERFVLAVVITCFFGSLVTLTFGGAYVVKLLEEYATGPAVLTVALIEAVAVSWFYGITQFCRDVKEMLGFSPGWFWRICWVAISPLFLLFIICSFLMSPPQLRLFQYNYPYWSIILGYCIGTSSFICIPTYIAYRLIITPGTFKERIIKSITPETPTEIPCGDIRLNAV", "assay": "5-HT inhibition assay: Cerep SET Human Serotonin Transporter Binding (Antagonist Radioligand) Assay", "conditions": "test compound 10 μM, ligand [3H]imipramine 2 nM, 60 min at RT", "experimental": "The 5-HT inhibition assay was performed according to the Cerep SET Human Serotonin Transporter Binding (Antagonist Radioligand) Assay, such as the assay described in www.eurofinsdiscoveryservices.com/catalogmanagement/viewitem//439, accessed Jul. 22, 2019. In some experiments, the assay information is as shown below:\nLigand concentration: 2 nM; Non specific: imipramine (10 μM);\nIncubation: 60 min at RT;\nControl inhibitor: imipramine; and Test compound concentration: 10 μM. Exemplary results are presented as 5-HT % inhibition at 10 μM of compound for compounds of the disclosure in Table 1 and for comparator compounds in Table 2."}, "CDK7: cyclin H and MNAT1": {"target": "T2, CDK7: cyclin H and MNAT1 (Homo sapiens, UniProt P50613)", "T2 construct": "purchased Invitrogen", "T2 sequence (P50613 whole entry)": "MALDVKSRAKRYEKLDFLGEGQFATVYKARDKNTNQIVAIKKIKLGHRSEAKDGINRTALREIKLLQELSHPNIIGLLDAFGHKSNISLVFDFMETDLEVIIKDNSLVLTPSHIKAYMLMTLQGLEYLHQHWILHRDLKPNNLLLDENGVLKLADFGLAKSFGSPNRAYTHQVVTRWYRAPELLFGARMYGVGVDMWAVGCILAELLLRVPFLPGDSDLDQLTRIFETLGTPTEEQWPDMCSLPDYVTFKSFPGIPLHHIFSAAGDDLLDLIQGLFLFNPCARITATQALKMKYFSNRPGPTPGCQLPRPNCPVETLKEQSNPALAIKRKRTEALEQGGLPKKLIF", "T2 sequence (P51946 whole entry partner)": "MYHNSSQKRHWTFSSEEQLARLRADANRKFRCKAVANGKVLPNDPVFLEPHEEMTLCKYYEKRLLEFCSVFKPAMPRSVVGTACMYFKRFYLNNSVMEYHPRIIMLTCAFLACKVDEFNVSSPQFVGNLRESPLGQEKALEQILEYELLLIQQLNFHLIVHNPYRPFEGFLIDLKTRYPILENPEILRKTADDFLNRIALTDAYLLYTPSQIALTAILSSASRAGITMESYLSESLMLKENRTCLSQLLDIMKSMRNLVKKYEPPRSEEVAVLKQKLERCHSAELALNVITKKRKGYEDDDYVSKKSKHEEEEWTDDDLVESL", "T2 sequence (P51948 whole entry partner)": "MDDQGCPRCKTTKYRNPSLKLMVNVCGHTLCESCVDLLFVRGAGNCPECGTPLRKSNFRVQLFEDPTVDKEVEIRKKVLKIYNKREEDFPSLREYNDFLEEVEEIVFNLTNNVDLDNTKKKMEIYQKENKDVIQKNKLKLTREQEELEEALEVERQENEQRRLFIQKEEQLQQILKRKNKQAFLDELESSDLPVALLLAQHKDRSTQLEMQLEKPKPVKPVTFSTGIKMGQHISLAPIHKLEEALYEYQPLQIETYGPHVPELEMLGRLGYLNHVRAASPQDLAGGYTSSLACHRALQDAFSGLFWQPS", "assay": "Invitrogen CDK7 assay (kinase inhibition)", "format": "biochemical", "conditions": "co-factors cyclin H and MNAT1, read-out: IC50 against CDK7", "experimental": "Compounds were assayed using Invitrogen CDK7 assay against a variety of kinases. Exemplary results are presented as IC50 values for compounds of the disclosure in Table 1 and for comparator compounds in Table 2. In Tables 1 and 2, “A” represents an IC50 value of less than 100 nM, “B” represents an IC50 value of greater than or equal to 100 nM and less than 1 μM, and “C” represents an IC50 value of greater than or equal to 1 μM. The co-factors used for each kinase in the assays were as follows: CDK7: cyclin H and MNAT1; CDK2: cyclin A; CDK9: cyclin T1."}, "[2]": {"conditions": "Table 1, compounds of the disclosure"}}, "note": "Like-named read-outs stand apart in the source and are kept apart here.", "data": [{"smiles": "C=CC(=O)Nc1cccc(C(=O)Nc2ccc(Nc3n[nH]c4c3CN(C(=O)N[C@H](CN(C)C)c3ccccc3)C4(C)C)cc2)c1", "note": "[Compound C-1]", "values": [{"measurement": "inhibition at 10 µM", "setting": "[1]; Table 2, comparator compounds", "value": 98.3, "unit": "%"}, {"measurement": "IC50", "setting": "CDK7: cyclin H and MNAT1; Table 2, comparator compounds", "value": "< 100", "unit": "nM"}]}, {"smiles": "C=CC(=O)Nc1ccc(C(=O)Nc2n[nH]c3c2CN(C(=O)N[C@H](CN(C)C)c2ccccc2)C32CC2)cc1", "note": "[Compound C-2]", "values": [{"measurement": "inhibition at 10 µM", "setting": "[1]; Table 2, comparator compounds", "value": 95.3, "unit": "%"}, {"measurement": "IC50", "setting": "CDK7: cyclin H and MNAT1; Table 2, comparator compounds", "value": "< 100", "unit": "nM"}]}, {"smiles": "C=CC(=O)Nc1cccc(Nc2n[nH]c3c2CN(C(=O)N[C@H](CN(C)C)c2ccccc2)C3(C)C)c1", "note": "[Compound C-3]", "values": [{"measurement": "inhibition at 10 µM", "setting": "[1]; Table 2, comparator compounds", "value": 98.2, "unit": "%"}, {"measurement": "IC50", "setting": "CDK7: cyclin H and MNAT1; Table 2, comparator compounds", "value": "< 100", "unit": "nM"}]}, {"smiles": "C=CC(=O)Nc1ccc(C(=O)N2CCC(Nc3n[nH]c4c3CN(C(=O)N[C@H](CN(C)C)c3ccccc3)C4(C)C)CC2)cc1", "note": "[Compound C-4]", "values": [{"measurement": "inhibition at 10 µM", "setting": "[1]; Table 2, comparator compounds", "value": 96.4, "unit": "%"}, {"measurement": "IC50", "setting": "CDK7: cyclin H and MNAT1; Table 2, comparator compounds", "value": "< 100", "unit": "nM"}]}, {"smiles": "C=CC(=O)N1CCC[C@H](C(=O)Nc2n[nH]c3c2CN(C(=O)N[C@H](CN(C)C)c2ccccc2)C3(C)C)C1", "note": "[Compound C-5]", "values": [{"measurement": "inhibition at 10 µM", "setting": "[1]; Table 2, comparator compounds", "value": 94.3, "unit": "%"}, {"measurement": "IC50", "setting": "CDK7: cyclin H and MNAT1; Table 2, comparator compounds", "value": "< 100", "unit": "nM"}]}, {"smiles": "C=CC(=O)Nc1ccc(C(=O)Nc2cccc(C(=O)Nc3n[nH]c4c3CN(C(=O)N[C@H](CN(C)C)c3ccccc3)C4(C)C)c2)cc1", "note": "[Compound C-6]", "values": [{"measurement": "inhibition at 10 µM", "setting": "[1]; Table 2, comparator compounds", "value": 99.6, "unit": "%"}, {"measurement": "IC50", "setting": "CDK7: cyclin H and MNAT1; Table 2, comparator compounds", "value": "< 100", "unit": "nM"}]}, {"smiles": "C=CC(=O)Nc1ccc(C(=O)Nc2n[nH]c3c2CN(C(=O)N[C@H](CN(C)C)c2ccccc2)[C@@H]3C(C)C)cc1", "note": "[Compound C-7]", "values": [{"measurement": "inhibition at 10 µM", "setting": "[1]; Table 2, comparator compounds", "value": 74.5, "unit": "%"}, {"measurement": "IC50", "setting": "CDK7: cyclin H and MNAT1; Table 2, comparator compounds", "value": "< 100", "unit": "nM"}]}, {"smiles": "C=CC(=O)Nc1ccc(C(=O)Nc2cccc(Nc3n[nH]c4c3CN(C(=O)N[C@H](CN(C)C)c3ccccc3)C4(C)C)c2)cc1", "note": "[Compound C-8]", "values": [{"measurement": "inhibition at 10 µM", "setting": "[1]; Table 2, comparator compounds", "value": 98, "unit": "%"}, {"measurement": "IC50", "setting": "CDK7: cyclin H and MNAT1; Table 2, comparator compounds", "value": "< 100", "unit": "nM"}]}, {"smiles": "C=CC(=O)Nc1ccc(C(=O)Nc2n[nH]c3c2CN(C(=O)N[C@H](CN(C)C)c2ccccc2)C3(C)C)nc1", "note": "[Compound C-10]", "values": [{"measurement": "inhibition at 10 µM", "setting": "[1]; Table 2, comparator compounds", "value": 98.3, "unit": "%"}, {"measurement": "IC50", "setting": "CDK7: cyclin H and MNAT1; Table 2, comparator compounds", "value": "< 100", "unit": "nM"}]}, {"smiles": "C=CC(=O)Nc1ccc(C(=O)Nc2nn(C)c3c2CN(C(=O)N[C@H](CN(C)C)c2ccccc2)C3(C)C)cc1", "note": "[Compound I-1, (S)-3-(4-acrylamidobenzamido)-N-(2-(dimethylamino)-1-phenylethyl)-1,6,6-trimethyl-4,6-dihydropyrrolo[3,4-c]pyrazole-5(1H)-carboxamide]", "values": [{"measurement": "inhibition at 10 µM", "setting": "[1]; Table 1", "value": 26.8, "unit": "%"}, {"measurement": "IC50", "setting": "CDK7: cyclin H and MNAT1; [2]", "value": "< 100", "unit": "nM"}]}, {"smiles": "C=CC(=O)Nc1ccc(C(=O)Nc2nn(C(F)F)c3c2CN(C(=O)N[C@H](CN(C)C)c2ccccc2)C3(C)C)cc1", "note": "[Compound I-5, (S)-3-(4-acrylamidobenzamido)-1-(difluoromethyl)-N-(2-(dimethylamino)-1-phenylethyl)-6,6-dimethyl-4,6-dihydropyrrolo[3,4-c]pyrazole-5(1H)-carboxamide]", "values": [{"measurement": "inhibition at 10 µM", "setting": "[1]; Table 1", "value": 81.4, "unit": "%"}, {"measurement": "IC50", "setting": "CDK7: cyclin H and MNAT1; [2]", "value": "< 100", "unit": "nM"}]}, {"smiles": "C=CC(=O)Nc1ccc(C(=O)Nc2nn(C)c3c2CN(C(=O)N[C@H](CN(C)C)c2ccccc2)C3(C)C)nc1", "note": "[Compound I-8, (S)-3-(5-acrylamidopicolinamido)-N-(2-(dimethylamino)-1-phenylethyl)-1,6,6-trimethyl-4,6-dihydropyrrolo[3,4-c]pyrazole-5(1H)-carboxamide]", "values": [{"measurement": "inhibition at 10 µM", "setting": "[1]; Table 1", "value": 50.6, "unit": "%"}, {"measurement": "IC50", "setting": "CDK7: cyclin H and MNAT1; [2]", "value": "100 to 1000", "unit": "nM"}]}, {"smiles": "C=CC(=O)Nc1ccc(C(=O)Nc2nn(C(F)F)c3c2CN(C(=O)N[C@H](CN(C)C)c2ccccc2)C3(C)C)nc1", "note": "[Compound I-33, (S)-3-(5-acrylamidopicolinamido)-1-(difluoromethyl)-N-(2-(dimethylamino)-1-phenylethyl)-6,6-dimethyl-4,6-dihydropyrrolo[3,4-c]pyrazole-5(1H)-carboxamide]", "values": [{"measurement": "inhibition at 10 µM", "setting": "[1]; Table 1", "value": 88.8, "unit": "%"}, {"measurement": "IC50", "setting": "CDK7: cyclin H and MNAT1; [2]", "value": "< 100", "unit": "nM"}]}, {"smiles": "C=CC(=O)Nc1ccc(C(=O)Nc2n[nH]c3c2CN(C(=O)N[C@H](CN(C)C)c2ccccc2)C3(C)C)cc1C(F)(F)F", "note": "[II-2]", "values": [{"measurement": "inhibition at 10 µM", "setting": "[1]; Table 2, comparator compounds", "value": 98.1, "unit": "%"}, {"measurement": "IC50", "setting": "CDK7: cyclin H and MNAT1; Table 2, comparator compounds", "value": "< 100", "unit": "nM"}]}]}
